Experimental data reported in patent US9556256B2, “Inhibition of cancer metastasis” (The Board of Trustees of The University of Arkansas, priority 2006, dated 2017).
Entries after “also recorded” stand apart in the source; their conditions may differ.

What was measured:
NRP-1 = assay: Real-time PCR gene expression in MCF-7 cells after 5azadC: NRP-1; assay type: cell-based, human; details: for Relative expression level of NRP-1 compared with no 5azadC: MCF-7 cells
Method: (§1) Real-time PCR was conducted to quantify mRNAs of five genes in four different human breast cancer tumor lines. The assayed genes were Syndecan-1 (SDC-1), Neuropilin-1 (NRP-1), Syndecan-4 (SDC-4), MCSP, and estrogen receptor 1. The tumor lines were MCF7, MDA-MD-468 (MDA-468), MDA-MB-231 (MDA-231), and MDA-MET. MCF-7 and MDA-468 are less aggressive. MDA-231 is an aggressive cell line, and MDA-MET is a subline of MDA-231 that metastasizes to bone. The quantity of each mRNA was assayed in comparison to 18s RNA. NRP-1, SDC-4 and MCSP expression was higher in the two more aggressive cell lines than in either of the two less aggressive cell lines. […] MCF-7 and MDA-468 are epithelial-like, while both MDA-231 and MDA-MET cells are mesenchymal type. Thus, high expression of NRP-1, MCSP and SDC-4 may be related to an epithelial to mesenchymal transition, which is a phenotypic event associated with more metastasis and aggressive growth.
(§2) In this experiment, gene expression levels were assayed by real-time PCR and comparison to 18S RNA levels. The dependence of gene expression on methylation levels was tested by treating tumor cells with varying levels of 5-aza-2′-deoxycytidine (5azadC), which is a demethylating agent (Table 6). Methylation of CpG islands is a well-known mechanism of gene control. Methylation decreases expression of genes whose promoters are methylated. The expression of NRP-1, CHST11, and MCPG each increased with increasing 5azadC concentration, which indicates they are under methylation control, with increased methylation repressing expression of the genes. Urokinase (uPA) was used as a positive control.

CHST11 = assay: Real-time PCR gene expression in MCF-7 cells after 5azadC: CHST11; assay type: cell-based, human; details: for Relative expression level of CHST11 compared with no 5azadC: MCF-7 cells
Method: as §1, §2

MCPG = assay: Real-time PCR gene expression in MCF-7 cells after 5azadC: MCPG; assay type: cell-based, human; details: for Relative expression level of MCPG compared with no 5azadC: MCF-7 cells
Method: as §1, §2

uPA = assay: Real-time PCR gene expression in MCF-7 cells after 5azadC: uPA; assay type: cell-based, human; details: positive control gene
Method: as §1, §2

Synd-4 = assay: Real-time PCR gene expression in MCF-7 cells after 5azadC: Synd-4; assay type: cell-based, human; details: for Relative expression level of Synd-4 compared with no 5azadC: MCF-7 cells
Method: as §1, §2

P-Selectin = P-Selectin (Mus musculus, UniProt Q01102); assay: P-Selectin binding to 4T1 cells by flow cytometry; details: for P-Selectin binding to 4T1 cells after treatment of the cells: cells pre-treated with the agent; for Inhibition of P-Selectin binding to 4T1 cells: P-Selectin pre-treated with chondroitin sulfate, various concentrations
P-Selectin, sequence (Q01102 with tags, fused parts or gaps limits assumed): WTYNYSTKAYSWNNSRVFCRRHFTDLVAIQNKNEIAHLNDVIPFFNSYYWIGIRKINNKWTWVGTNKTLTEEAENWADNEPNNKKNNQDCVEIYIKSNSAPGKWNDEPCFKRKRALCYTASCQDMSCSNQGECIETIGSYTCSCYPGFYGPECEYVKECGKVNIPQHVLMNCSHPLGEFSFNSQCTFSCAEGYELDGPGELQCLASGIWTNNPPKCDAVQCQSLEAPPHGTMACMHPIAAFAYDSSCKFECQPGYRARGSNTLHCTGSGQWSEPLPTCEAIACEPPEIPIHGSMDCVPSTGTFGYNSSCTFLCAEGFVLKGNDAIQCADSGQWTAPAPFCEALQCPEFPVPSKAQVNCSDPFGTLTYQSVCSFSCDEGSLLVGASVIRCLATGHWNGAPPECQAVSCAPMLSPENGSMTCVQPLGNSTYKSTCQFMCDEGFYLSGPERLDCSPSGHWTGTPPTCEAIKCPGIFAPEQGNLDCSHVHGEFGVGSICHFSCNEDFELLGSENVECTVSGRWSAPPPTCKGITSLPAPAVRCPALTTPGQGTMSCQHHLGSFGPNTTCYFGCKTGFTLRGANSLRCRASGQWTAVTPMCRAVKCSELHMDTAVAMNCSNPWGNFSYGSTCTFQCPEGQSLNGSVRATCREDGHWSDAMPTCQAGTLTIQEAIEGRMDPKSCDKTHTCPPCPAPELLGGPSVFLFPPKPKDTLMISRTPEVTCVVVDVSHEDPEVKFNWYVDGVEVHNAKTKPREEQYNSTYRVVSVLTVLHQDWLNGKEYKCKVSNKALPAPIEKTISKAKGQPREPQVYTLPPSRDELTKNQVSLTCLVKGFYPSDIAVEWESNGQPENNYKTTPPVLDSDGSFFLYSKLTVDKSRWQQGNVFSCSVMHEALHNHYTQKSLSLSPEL
Method: Unless specified otherwise, flow cytometry was conducted as follows. Acquisition and analysis of data was performed on an EPICS®™ XL™.flow cytometer (Beckman Coulter, Inc., Fullerton, Calif.). Cells were passed to new flasks 24 hours before measuring lectin binding. The subconfluent monolayer of cells was detached with Cellstripper (Mediatech, Inc. Herndon, Va.) and washed with Dulbecco's phosphate buffered saline with Ca++ and Mg++ (Mediatech, Inc. Herndon, Va.). Cells were transferred to FACS buffer (Dulbecco's Phosphate Buffered Saline, 1% BSA and 0.1% Sodium Azide), counted and diluted to ˜1-2×10^6/ml. Monoclonal antibodies were added to a final concentration of 10 μg/ml. Cells were incubated on ice for 30 minutes, washed twice with FACS buffer, before the addition of FITC-conjugated streptavidin (2 μg/ml) for lectin analysis or FITC-conjugated goat anti-mouse immunoglobulin for monoclonal analysis. Cells were then washed and fixed with paraformaldehyde, before analysis by flow cytometry.
Recombinant E- and P-Selectin/Fc (human IgG) were purchased from R&D systems, Minneapolis, Minn. These recombinant molecules and FITC-conjugated anti-human IgG were used for binding analyses in flow cytometry assays. Human and murine recombinant selectins were used for human and murine cells, respectively.
Binding of recombinant P-Selectin to cells was examined after treatment with heparinase and chondroitinase ABC or in the presence of various concentrations of heparin and chondroitin sulfate A, B, C, and E (Seikagaku America, Falmouth, Mass.).

4T1 cells [1] = assay: Binding of thrombin-treated Calcein-AM-labeled mouse platelets to 4T1 cells; assay type: cell-based; details: 100 U/ml final concentration
Method: To examine if heparin can block the interaction of mouse platelets with tumor cells, 4T1 cells were mixed with Calcein-AM-labeled mouse platelets in the presence of mouse thrombin with or without heparin. Mouse thrombin was added to stimulate relocation of P-Selectin to platelet surface and tumor cells were then analyzed by flow cytometry for Calcein-AM staining, indicating platelet attachment. […] Blood was collected into sodium citrate (0.38% w/v) from naive mice and platelets were isolated from plasma by centrifugation. Platelet were washed and labeled with 5 μM final Calcein-AM (Molecular Probes, Eugene, Oreg., USA) for 15 minutes at 37° C. Platelets were then washed and incubated with 1 U/ml thrombin (Haematologic Technologies Inc, Essex Junction, Vt.) at 37° C. for 10 minutes. Heparin (Baxter Healthcare Corp., Deerfield, Ill., 100 U/ml final concentration) was then added to the mixture of platelets and thrombin, and incubated with 4T1 cells in flow cytometry tubes, for 15 minutes at room temperature, then acquired and analyzed by flow cytometry.

4T1 cells [2] = assay: Spontaneous lung metastasis of 4T1 tumors in BALB/c mice after heparin, clonogenic assay; assay type: in vivo, mouse; details: 100 units 30 minutes before tumor cell inoculation; 26 days after inoculation
Method: BALB/c female mice (6-8 weeks old) were purchased from Harlan (Indianapolis, Ind.). Tumors were established as described earlier (9). Briefly, each mouse was inoculated subcutaneously in the abdominal mammary gland with 5×10^4 4 T1 cells. To establish a functional correlation between P-Selectin ligand expression of 4T1 cells and their metastatic ability in vivo, we injected mice with 100 units of heparin 30 minutes before tumor cell inoculation. Mice were sacrificed 26 days after tumor inoculation, lungs were harvested and metastatic cells were detected by clonogenic assay. […] All mice that were injected with PBS as control developed lung metastasis.

tumor cells = details: clinically relevant dose; reference 8; cited from earlier work
4T1 cells [3] = assay: Lung colonies in mice with 4T1 fat pad tumors injected daily with CS; assay type: in vivo, mouse; details: 30 days after transplant
Method: FIG. 20. Chondroitin sulfate inhibits metastasis. Mice were injected with 4T1 cells into fact pads. After tumors were palpable (3-4 days after transplant) they were daily injected with CS intraperitoneally (ip) or subcutaneously (sc). Micer were sacrificed 30 days after transplant and lung colonies were quantified. Saline injection was used as a control. Comparisons were made between groups treated with CS and the saline group as control. NS, not significant. Average and SD with three animals per group is shown.
Mice were injected with 4T1 cells into fat pads. After tumors were palpable (3-4 days after transplant) the mice were daily injected with CS intraperitoneally (ip) or subcutaneously (sc). The mice were sacrificed 30 days after transplant and lung colonies were quantified. CS was dissolved in saline for injection. Saline control injection by either sc or ip routes produced similar results.

In the case of `Nc1ncn([C@H]2C[C@H](O)[C@@H](CO)O2)c(=O)n1` [5azadC, 5-aza-2′-deoxycytidine], the “Relative expression level of NRP-1 compared with no 5azadC” value (NRP-1; 0.5 μM) was 1.04, the “Relative expression level of NRP-1 compared with no 5azadC” value (NRP-1; 1 μM) was 1.50 and the “Relative expression level of NRP-1 compared with no 5azadC” value (NRP-1; 5 μM) was 1.72. For the same compound, the “Relative expression level of NRP-1 compared with no 5azadC” value (NRP-1; 20 μM) was 1.71, the “Expression of NRP-1 with increasing 5azadC concentration” value (NRP-1; trend over 0.5-20 μM) was “increased” and the “Relative expression level of CHST11 compared with no 5azadC” value (CHST11; 0.5 μM) was 1.34. The “Relative expression level of CHST11 compared with no 5azadC” value (CHST11; 1 μM) was 1.68, the “Relative expression level of CHST11 compared with no 5azadC” value (CHST11; 5 μM) was 3.7 and the “Relative expression level of CHST11 compared with no 5azadC” value (CHST11; 20 μM) was 4.00. For the same compound, the “Expression of CHST11 with increasing 5azadC concentration” value (CHST11; trend over 0.5-20 μM) was “increased”, the “Relative expression level of MCPG compared with no 5azadC” value (MCPG; 0.5 μM) was 1.3 and the “Relative expression level of MCPG compared with no 5azadC” value (MCPG; 1 μM) was 1.4. For the same compound, the “Relative expression level of MCPG compared with no 5azadC” value (MCPG; 5 μM) was 1.7, the “Relative expression level of MCPG compared with no 5azadC” value (MCPG; 20 μM) was 2.1 and the “Expression of MCPG with increasing 5azadC concentration” value (MCPG; trend over 0.5-20 μM) was “increased”. The “Relative expression level of uPA compared with no 5azadC” value (uPA; 0.5 μM) was 2.2, the “Relative expression level of uPA compared with no 5azadC” value (uPA; 1 μM) was 2.9 and the “Relative expression level of uPA compared with no 5azadC” value (uPA; 5 μM) was 3.2. The “Relative expression level of uPA compared with no 5azadC” value (uPA; 20 μM) was 3.9, the “Relative expression level of Synd-4 compared with no 5azadC” value (Synd-4; 0.5 μM) was 0.7 and the “Relative expression level of Synd-4 compared with no 5azadC” value (Synd-4; 1 μM) was 0.5. The “Relative expression level of Synd-4 compared with no 5azadC” value (Synd-4; 5 μM) was 0.8, the “Relative expression level of Synd-4 compared with no 5azadC” value (Synd-4; 20 μM) was 0.6 and the “Syndecan-4 expression with 5azadC treatment” value (Synd-4; trend over 0.5-20 μM) was “decreased or remained approximately constant”.
With `O=C(O)CN(CCN(CC(=O)O)CC(=O)O)CC(=O)O` [EDTA] the “P-Selectin reactivity with 4T1 cells in presence of EDTA” value (P-Selectin; high concentrations (20 and 40 mM)) was “inhibited P-Selectin reactivity only at high concentrations” and the “P-Selectin reactivity with 4T1 cells in presence of EDTA” value (P-Selectin; low concentration (10 mM)) was “not blocked”.
In the case of `[Na+].[O-][Cl+2]([O-])[O-]` [sodium chlorate], the “P-Selectin binding to 4T1 cells after treatment of the cells” value (P-Selectin) was “elimination of P-Selectin binding in a majority of the cells”.
In the case of Heparin, the “Binding of thrombin treated platelets to tumor cells” value (4T1 cells [1]) was “reduced”, the “Mice with complete absence of metastases in lung” value (4T1 cells [2]) was “six mice out of total of seven” and the “Number of mice positive for established lung metastases, Positive (total)” value (4T1 cells [2]) was “*1 (7)”. For the same compound, the “Lung metastasis in experimental models” value (tumor cells) was “inhibited lung metastasis”, the “Effective dose for inhibition of P-Selectin binding, as concentration” value (P-Selectin; corresponds to 120 units) was 0.7 mg/mL and the “Inhibition of P-Selectin binding to cells” value (P-Selectin; sLex-Neg 4T1 cell variant, recombinant P-Selectin pre-incubated with 0.7-120 Units heparin) was “efficiently inhibited P-Selectin binding to cells in a dose dependent manner”. For the same compound, the “Effective dose for inhibition of P-Selectin binding” value (P-Selectin; sLex-Neg 4T1 cells, FIG. 10) was 120 units.
With “Neuraminidase: Neuraminidase (Vibrio cholerae) from Sigma, used at 50 mU/ml” the “P-Selectin binding to 4T1 cells after treatment of the cells” value (P-Selectin) was “did not change”.
For chondroitin sulfate A [CS A], the “Inhibition of P-Selectin binding to 4T1 cells” value (P-Selectin) was “minimal inhibitory effects”.
With chondroitin sulfate C [CS C] the “Inhibition of P-Selectin binding to 4T1 cells” value (P-Selectin) was “minimal inhibitory effects”.
For chondroitin sulfate E [CS E], the “Concentration giving complete inhibition of P-Selectin binding” value (P-Selectin; 4T1 cells) was 0.5 mg/mL and the “Inhibition of P-Selectin binding to 4T1 cells” value (P-Selectin) was “inhibited P-Selectin binding; also recorded: effectively inhibit”.
In the case of chondroitin sulfate [CS], the “Metastasis (lung colonies) compared to saline control” value (4T1 cells [3]; 1 mg subcutaneously daily) was “decreased metastasis”, the “Metastasis (lung colonies) compared to saline control” value (4T1 cells [3]; 10 mg subcutaneously daily) was “decreased metastasis” and the “Metastasis (lung colonies) compared to saline control” value (4T1 cells [3]; intraperitoneally daily) was “did not appear to”.
In the case of dermatan sulfate [CS B], the “Concentration dependence of inhibition of P-Selectin binding” value (P-Selectin; 0.005-5.0 mg/ml) was “inhibitory effects only at higher concentrations” and the “Inhibition of P-Selectin binding to 4T1 cells” value (P-Selectin) was “inhibited P-Selectin binding”.
